Earlier results on one compound are cited in patent publication US11666686B2, “Amtimicrobial silicones” (WYNNVISION, LLC, priority 2020, dated 2023).

The structures appear in SMILES notation.

As a reminder, the pKa is the pH at which an ionisable group is half protonated. With `CCCCCCCCCCCCCCN(C)C` [C14, N,N-dimethyltetradecylamine], the pKa is listed as approximately 10.
